Source: US7268209B2, “Peptides, derivates thereof, process for producing the same, novel strain producing the same, and antiviral agent comprising the same as active ingredient” (Toyo Suisan Kaisha, Ltd., priority 2001, dated 2007)
Where a SMILES comes first, the peptide text is derived from it. Bridges are numbered along the chain shown (N, C = ends). [ ]: non-standard residue; d: D form. The star is where a group is joined. ξ: configuration not given here. Decanoyl(3ξ-OH) = CCCCCCCC(O)CC(=O)*; X1 = CCCCCC/C=C/CC(O)CC(=O)*; Dab = NCC[CH](N)C(=O)O

Assays:
IHNV HV7601 strain = assay: Antiviral activity by plaque reduction, IHNV in CHSE-214 cells; format: cell-based, infectious hematopoietic necrosis virus (IHNV) in salmonid; conditions: decrease in number of plaques, sample and virus pre-incubated at 10° C. for 2 hours
Experimental: (§1) Evaluation of the antiviral activity was conducted by the same method as described by Burke et al. (Appln. Env. Microbiol., 29, 872-876, 1980) except for the following partial modification. • (1) A sample to be measured for its antiviral activity is dissolved in dimethyl sulfoxide (DMSO) and then diluted with Hank's solution. • (2) 0.2 mL each of the diluted solution in (1) and a viral solution (IHNV HV7601 strain; 100 to 200 PFU/sample) diluted with Hank's solution are mixed and incubated at 10° C. for 2 hours. • (3) After the incubation in (2), the sample is inoculated for 30 minutes in CHSE-214 cells previously cultured for 24 hours in a 24-well cell culture plate. • (4) The sample is removed from each well, and an MEM medium containing. 0.8% methyl cellulose is overlaid on the cells and cultured for 7 days. • (5) The cells on the culture plate are fixed in 3.7% aqueous formalin, and after staining with 1% Crystal Violet, the number of plaques is counted. • (6) The antiviral activity is expressed in terms of the decrease in the number of plaques, relative to that decrease on wells to which the sample was not added. (Composition of the Medium) • a) 5.00 g polypeptone, 2.50 g meat extract, 2.50 g yeast extract, 0.20 g K2HPO4, 0.05 g MgSO4, 1.00 g glucose, 5.00 g NaCl, 1000 mL distilled water, pH 7.5, which were autoclaved at 121° C. for 15 minutes. • b) 15.00 g agar for microorganisms is added to a).
In the following examples, the evaluation of the antiviral activity was conducted in the method described above.
(§2) The antiviral activities of the present peptide MA026 against infectious hematopoietic necrosis virus (IHNV) in salmonid, rhabdovirus (EVA) in American eels and rhabdovirus (EVEX) in European eels were measured according to the method described in Example 1.

[1] = tested on: white spot syndrome virus (WSSV); assay: Antiviral effect against shrimp virus: injection of peptide-treated WSSV into shrimp; format: in vivo, Penaeus monodon (black tiger shrimp); conditions: WSSV mixed with equal volume of 100 μg/mL peptide solution, 25° C. 1 hour, 0.1 mL intramuscular; observed 2 weeks; 10 shrimps per group
Experimental: Penaeus monodon (black tiger shrimp) weighing about 20 g were divided at random into groups each consisting of 10 shrimps and raised separately. A viral culture fluid prepared by diluting the white spot syndrome virus (WSSV LD50 value; 10^−3.6) 2000-fold with Hank's solution was mixed with an equal volume of a diluted solution (100 μg/mL) of the present peptides MA026 and BTI-MA026. After the mixture was incubated at 25° C. for 1 hour, the solution was intramuscularly injected at a dose of 0.1 mL into each shrimp, for viral inoculation. Whether the shrimps were actually inoculated with the virus or not was determined by observing them for 2 weeks after viral infection, and pathologically examining the ones that dies. The lesion tissues were examined to detect the viral gene by the PCR method. In the control group, Hank's solution only was used.

hepatitis C virus (HCV) = format: cell-based; conditions: summary of Table 14
Experimental: Using the present peptides MA026, BTI-MA026 and R2MA026 as objects, the antiviral effect against hepatitis C virus (HCV) was examined. The experiments were conducted according to the method of Mizutani et al. (Biochem. Biophys. Res. Commun. 227, 822-826, 1996) under supervision of Dr. Kunitada Shimotohno at Institute for Viral Research, Kyoto University. • (1) 1×10^6 gene titer per 0.1 mL of HCV was infected with 1×10^6 MT-2C cells per 1 mL, and cultured at 32° C. for 4 days. • (2) The infected cells of (1) were divided (10^5 cells per well) into a 96-well plate and incubated at 32° C. for 1 day. • (3) Each of the present peptides was added to each well so that the concentration thereof became 1 μM and 5 μM, and incubated at 32° C. for further 2 days. • (4) RNA was extracted from the test cells, and after synthesized cDNA with a reverse transcriptase, PCR of first and second round were performed to detect the HCV gene. • (5) The inhibition effect against HCV was evaluated by comparing fluorescence intensities of the PCR products originated from the HCV infected cells to which the test sample was added, assuming the fluorescence intensity of the PCR product originated from the infected cells to which no test substance was added, to be 100%.

[2] = tested on: rhabdovirus (EVA) in American eels; assay: Antiviral activity by plaque reduction, EVA; format: cell-based; conditions: method of Example 1, decrease in number of plaques
Experimental: as §1, with “(Composition of the Medium) • a) 5.00 g polypeptone, 2.50 g meat extract, 2.50 g yeast extract, 0.20 g K2HPO4, 0.05 g MgSO4, 1.00 g glucose, 5.00 g NaCl, 1000 mL distilled water, pH 7.5, which were autoclaved at 121° C. for 15 minutes. • b) 15.00 g agar for microorganisms is added to a).” left out
as §2

[3] = tested on: rhabdovirus (EVEX) in European eels; assay: Antiviral activity by plaque reduction, EVEX; format: cell-based; conditions: method of Example 1, decrease in number of plaques
Experimental: as §1, with “(Composition of the Medium) • a) 5.00 g polypeptone, 2.50 g meat extract, 2.50 g yeast extract, 0.20 g K2HPO4, 0.05 g MgSO4, 1.00 g glucose, 5.00 g NaCl, 1000 mL distilled water, pH 7.5, which were autoclaved at 121° C. for 15 minutes. • b) 15.00 g agar for microorganisms is added to a).” left out
as §2

| SMILES | antiviral activity against IHNV (IHNV HV7601 strain) | dead shrimp after inoculation with WSSV [1] | proliferation of hepatitis C virus (hepatitis C virus (HCV)) | antiviral activity against EVA [2] | antiviral activity against EVEX [3] |
| --- | --- | --- | --- | --- | --- |
| CCCCCCCC(O)CC(=O)NC(CC(C)C)C(=O)NC(CCC(=O)O)C(=O)NC(CCN)C(=O)NC(C(=O)NC(CC(C)C)C(=O)NC(CCN)C(=O)NC1COC(=O)C(C(C)CC)NC(=O)C(CCN)NC(=O)C(CC(C)C)NC(=O)C(CCN)NC(=O)C(CC(C)C)NC(=O)C(CC(C)C)NC(=O)C(C(C)C)NC1=O)C(C)C (stereo not drawn) [BTI-MA026] ({Decanoyl(3ξ-OH)}-LE[Dab]VL[Dab]SVLL[Dab]L[Dab]I; ester 7-C; configuration not given here) | confirmed | no dead shrimp | inhibited | – | – |
| CCCCCC/C=C/CC(O)CC(=O)NC(CC(C)C)C(=O)NC(CCC(=O)O)C(=O)NC(CCC(N)=O)C(=O)NC(C(=O)NC(CC(C)C)C(=O)NC(CCC(N)=O)C(=O)NC1COC(=O)C(C(C)CC)NC(=O)C(CCC(N)=O)NC(=O)C(CC(C)C)NC(=O)C(CCC(N)=O)NC(=O)C(CC(C)C)NC(=O)C(CC(C)C)NC(=O)C(C(C)C)NC1=O)C(C)C (stereo not drawn) [R2MA026] (X1-LEQVLQSVLLQLQI; ester 7-C; configuration not given here) | confirmed | – | inhibited | – | – |
| CCCCCCCC(O)CC(=O)NC(CC(C)C)C(=O)NC(CCC(=O)O)C(=O)NC(CCN)C(=O)NC(C(=O)NC(CC(C)C)C(=O)NC(CCN)C(=O)NC(CO)C(=O)NC(C(=O)NC(CC(C)C)C(=O)NC(CC(C)C)C(=O)NC(CCN)C(=O)NC(CC(C)C)C(=O)NC(CCN)C(=O)NC(C(=O)O)C(C)CC)C(C)C)C(C)C (stereo not drawn) [BTI-base MA026] ({Decanoyl(3ξ-OH)}-LE[Dab]VL[Dab]SVLL[Dab]L[Dab]I-OH; configuration not given here) | confirmed | – | – | – | – |
| CCCCCCCC(O)CC(=O)NC(CC(C)C)C(=O)NC(CCC(=O)O)C(=O)NC(CCC(N)=O)C(=O)NC(C(=O)NC(CC(C)C)C(=O)NC(CCC(N)=O)C(=O)NC1COC(=O)C(C(C)CC)NC(=O)C(CCC(N)=O)NC(=O)C(CC(C)C)NC(=O)C(CCC(N)=O)NC(=O)C(CC(C)C)NC(=O)C(CC(C)C)NC(=O)C(C(C)C)NC1=O)C(C)C (stereo not drawn) [MA026] ({Decanoyl(3ξ-OH)}-LEQVLQSVLLQLQI; ester 7-C; configuration not given here) | high antiviral activity | no dead shrimp | inhibited | high antiviral activity | high antiviral activity |
| CCCCCCCC(O)CC(=O)NC(CC(C)C)C(=O)NC(CCC(=O)O)C(=O)NC(CCC(N)=O)C(=O)NC(C(=O)NC(CC(C)C)C(=O)NC(CCC(N)=O)C(=O)NC1COC(=O)C(CC(C)C)NC(=O)C(CCC(N)=O)NC(=O)C(CC(C)C)NC(=O)C(CCC(N)=O)NC(=O)C(CC(C)C)NC(=O)C(C(C)C)NC(=O)C(C(C)C)NC1=O)C(C)C (stereo not drawn) [R1MA026] ({Decanoyl(3ξ-OH)}-LEQVLQSVVLQLQL; ester 7-C; configuration not given here) | confirmed | – | – | – | – |
